Species on record: Rattus norvegicus
Test: DrugMatrix - Regimen: Daily Repeat
Assay type: toxicity, organism-based, Sprague-Dawley
Design: regimen Daily Repeat, gender Male, age 6-8 weeks
Conditions: in vivo, sc, […], route mini-PUMP - SUBCUTANEOUS, dose 4.2 mg/Kg, vehicle 100 % SALINE; for ABSOLUTE EOSINOPHIL / ABSOLUTE LYMPHOCYTE / ABSOLUTE MONOCYTE / ABSOLUTE SEGMENTED NEUTROPHIL / BASOPHIL / EOSINOPHIL / ERYTHROCYTE COUNT / HEMATOCRIT / HEMOGLOBIN / LEUKOCYTE COUNT / LYMPHOCYTE / MEAN CORPUSCULAR HEMOGLOBIN / MEAN CORPUSCULAR HEMOGLOBIN CONCENTRATION / MEAN CORPUSCULAR VOLUME / MONOCYTE / NEUTROPHIL / NUCLEATED RED BLOOD CELLS / PLATELET COUNT / ABSOLUTE BASOPHIL: tissue Blood; for ALANINE AMINOTRANSFERASE / ALBUMIN / ALKALINE PHOSPHATASE / ASPARTATE AMINOTRANSFERASE / BLOOD UREA NITROGEN / CARBON DIOXIDE / CHLORIDE / CHOLESTEROL / CREATININE / GLUCOSE / LACTATE DEHYDROGENASE / LIPASE / PHOSPHORUS / POTASSIUM / SODIUM / TOTAL BILIRUBIN / TOTAL PROTEIN / URIC ACID: tissue Plasma
[1] = 72 h, dose level M1, time 3 day
[2] = 120 h, dose level M1, time 5 day

CC(C)NCC(O)c1ccc(O)c(O)c1 (stereo not given) [ISOPROTERENOL]
ABSOLUTE EOSINOPHIL [1]: 46 CELLS/uL
ABSOLUTE LYMPHOCYTE [1]: 13359 CELLS/uL
ABSOLUTE MONOCYTE [1]: 389.67 CELLS/uL
ABSOLUTE SEGMENTED NEUTROPHIL [1]: 972 CELLS/uL
BASOPHIL [1]: 0%
EOSINOPHIL [1]: 0.33%
ERYTHROCYTE COUNT [1]: 5.5 x10E6/uL
HEMATOCRIT [1]: 32.97%
HEMOGLOBIN [1]: 12.13 G/DL
LEUKOCYTE COUNT [1]: 14.77 x10E3/uL
LYMPHOCYTE [1]: 90.33%
MEAN CORPUSCULAR HEMOGLOBIN [1]: 22.1 pg
MEAN CORPUSCULAR HEMOGLOBIN CONCENTRATION [1]: 36.8 G/DL
MEAN CORPUSCULAR VOLUME [1]: 60.03 fL
MONOCYTE [1]: 2.67%
NEUTROPHIL [1]: 6.67%
NUCLEATED RED BLOOD CELLS [1]: 0.33 /100WBC
PLATELET COUNT [1]: 1142.67 x10E3/uL
ALANINE AMINOTRANSFERASE [1]: 50.67 u/L
ALBUMIN [1]: 3.93 G/DL
ALKALINE PHOSPHATASE [1]: 337 u/L
ASPARTATE AMINOTRANSFERASE [1]: 73.67 u/L
BLOOD UREA NITROGEN [1]: 13.33 mg/dL
CARBON DIOXIDE [1]: 25.33 mmol/L
CHLORIDE [1]: 103.67 MEQ/L
CHOLESTEROL [1]: 77.33 mg/dL
CREATININE [1]: 0.18 mg/dL
GLUCOSE [1]: 140.33 mg/dL
LACTATE DEHYDROGENASE [1]: 151 u/L
LIPASE [1]: 9 u/L
PHOSPHORUS [1]: 10.17 mg/dL
POTASSIUM [1]: 7.09 MEQ/L
SODIUM [1]: 146.4 MEQ/L
TOTAL BILIRUBIN [1]: 0.2 mg/dL
TOTAL PROTEIN [1]: 5.9 G/DL
URIC ACID [1]: 2.33 mg/dL
ABSOLUTE BASOPHIL [2]: 0 CELLS/uL
ABSOLUTE EOSINOPHIL [2]: 84 CELLS/uL
ABSOLUTE LYMPHOCYTE [2]: 11630 CELLS/uL
ABSOLUTE MONOCYTE [2]: 485 CELLS/uL
ABSOLUTE SEGMENTED NEUTROPHIL [2]: 2701 CELLS/uL
BASOPHIL [2]: 0%
EOSINOPHIL [2]: 0.5%
ERYTHROCYTE COUNT [2]: 5.61 x10E6/uL
HEMATOCRIT [2]: 34.6%
HEMOGLOBIN [2]: 12.85 G/DL
LEUKOCYTE COUNT [2]: 14.9 x10E3/uL
LYMPHOCYTE [2]: 78.5%
MEAN CORPUSCULAR HEMOGLOBIN [2]: 22.95 pg
MEAN CORPUSCULAR HEMOGLOBIN CONCENTRATION [2]: 37.15 G/DL
MEAN CORPUSCULAR VOLUME [2]: 61.75 fL
MONOCYTE [2]: 3%
NEUTROPHIL [2]: 18%
NUCLEATED RED BLOOD CELLS [2]: 0.5 /100WBC
PLATELET COUNT [2]: 1202 x10E3/uL
ALANINE AMINOTRANSFERASE [2]: 57 u/L
ALBUMIN [2]: 4.05 G/DL
ALKALINE PHOSPHATASE [2]: 244.5 u/L
ASPARTATE AMINOTRANSFERASE [2]: 74 u/L
BLOOD UREA NITROGEN [2]: 11.5 mg/dL
CARBON DIOXIDE [2]: 27 mmol/L
CHLORIDE [2]: 104.5 MEQ/L
CHOLESTEROL [2]: 70 mg/dL
CREATININE [2]: 0.15 mg/dL
GLUCOSE [2]: 152 mg/dL
LACTATE DEHYDROGENASE [2]: 156 u/L
LIPASE [2]: 8.5 u/L
PHOSPHORUS [2]: 13.1 mg/dL
POTASSIUM [2]: 6.73 MEQ/L
SODIUM [2]: 149.4 MEQ/L
TOTAL BILIRUBIN [2]: 0.15 mg/dL
TOTAL PROTEIN [2]: 5.9 G/DL
URIC ACID [2]: 2.25 mg/dL
ABSOLUTE BASOPHIL (dose level M1, time 14 day): 0 CELLS/uL
ABSOLUTE EOSINOPHIL (dose level M1, time 14 day): 0 CELLS/uL
ABSOLUTE LYMPHOCYTE (dose level M1, time 14 day): 12693.75 CELLS/uL
ABSOLUTE MONOCYTE (dose level M1, time 14 day): 445.5 CELLS/uL
ABSOLUTE SEGMENTED NEUTROPHIL (dose level M1, time 14 day): 2010.75 CELLS/uL
BASOPHIL (dose level M1, time 14 day): 0%
EOSINOPHIL (dose level M1, time 14 day): 0%
ERYTHROCYTE COUNT (dose level M1, time 14 day): 5.78 x10E6/uL
HEMATOCRIT (dose level M1, time 14 day): 35.65%
HEMOGLOBIN (dose level M1, time 14 day): 12.93 G/DL
LEUKOCYTE COUNT (dose level M1, time 14 day): 15.15 x10E3/uL
LYMPHOCYTE (dose level M1, time 14 day): 83.25%
MEAN CORPUSCULAR HEMOGLOBIN (dose level M1, time 14 day): 22.38 pg
MEAN CORPUSCULAR HEMOGLOBIN CONCENTRATION (dose level M1, time 14 day): 36.27 G/DL
MEAN CORPUSCULAR VOLUME (dose level M1, time 14 day): 61.73 fL
MONOCYTE (dose level M1, time 14 day): 3.25%
NEUTROPHIL (dose level M1, time 14 day): 13.5%
NUCLEATED RED BLOOD CELLS (dose level M1, time 14 day): 0 /100WBC
PLATELET COUNT (dose level M1, time 14 day): 856.5 x10E3/uL
ALANINE AMINOTRANSFERASE (dose level M1, time 14 day): 62.75 u/L
ALBUMIN (dose level M1, time 14 day): 4.12 G/DL
ALKALINE PHOSPHATASE (dose level M1, time 14 day): 336 u/L
ASPARTATE AMINOTRANSFERASE (dose level M1, time 14 day): 83.25 u/L
BLOOD UREA NITROGEN (dose level M1, time 14 day): 16.5 mg/dL
CARBON DIOXIDE (dose level M1, time 14 day): 32 mmol/L
CHLORIDE (dose level M1, time 14 day): 100.75 MEQ/L
CHOLESTEROL (dose level M1, time 14 day): 75.75 mg/dL
CREATININE (dose level M1, time 14 day): 0.21 mg/dL
GLUCOSE (dose level M1, time 14 day): 144 mg/dL
LACTATE DEHYDROGENASE (dose level M1, time 14 day): 122.25 u/L
LIPASE (dose level M1, time 14 day): 8.75 u/L
PHOSPHORUS (dose level M1, time 14 day): 13.35 mg/dL
POTASSIUM (dose level M1, time 14 day): 7.05 MEQ/L
SODIUM (dose level M1, time 14 day): 145.78 MEQ/L
TOTAL BILIRUBIN (dose level M1, time 14 day): 0.1 mg/dL
TOTAL PROTEIN (dose level M1, time 14 day): 6.1 G/DL
URIC ACID (dose level M1, time 14 day): 1.88 mg/dL
